The values below come from patent publication US11820759B2, “Modulators of chemokine receptors” (CHEMOCENTRYX, INC., priority 2015, dated 2023).

The experiment has as its system IL-23 induced ear swelling. Kind of experiment: IL-23 induced ear swelling model for psoriasis. The experiment is classed as in vivo. The following applies: C57B1/6 mice; sub-cutaneous, therapeutic dosing after 3 intradermal injections of IL-23; calipers; FIG. 2. The method, then: An intradermal injection of IL-23 into the ear of mice can cause a swelling of the ear which is CCR6 dependent (Hedrick M. N et. al. J. Clinical Investigation. 2009. 119:2317-2329). C57B1/6 mice were given intradermal injections of IL-23 in the right ear. PBS was given by intradermal injection into the left ear as a control. Compound 1.023 (synthesized in example 6) was dosed by sub-cutaneous route. The compound was dosed in a therapeutic manner, after 3 intradermal injections of IL-23 and upon initiation of moderate ear swelling. The degree of swelling was measured using calipers.

As for `COc1ccc(C(=O)O)c(N2Cc3c(Cl)ccc(Nc4c(N[C@@H](c5cc(C)c(C)o5)C(C)(C)C)c(=O)c4=O)c3C2=O)c1` [Compound 1.023, 2-[4-chloro-7-[[2-[[(1R)-1-(4,5-dimethyl-2-furyl)-2,2-dimethyl-propyl]amino]-3,4-dioxo-cyclobuten-1-yl]amino]-1-oxo-isoindolin-2-yl]-4-methoxy-benzoic acid], the “IL-23 induced ear swelling” value is “completely inhibit IL-23 induced ear swelling”.
